Data taken from patent US20250163061A1 (Bala Therapeutics, Inc., priority 2021, published 2025).

Tests used:
Type in all cases: cell-based
MOLM-13 = MOLM-13 cellular growth inhibition assay (CellTiter-Glo); settings: Homo sapiens, 168 h, MOLM-13 cells, 7 days of incubation
Procedure: (§1) HEK293 (Institute of Cytology Russian Academy of Science), MV4-11 (ATCC, CRL-9591), MOLM-13 (AcceGen, ABC-TC517S) were seeded at a density of 500 cells per well (HEK293) and 2000 cells per well (MV4-11, MOLM-13) in a 384-well clear bottom plate (Greiner Cat #781090) in 45 μl total volume of DMEM (PanEco, Cat #C420, Russia) or RPMI (PanEco, Cat #C330, Russia) with 10% FBS (HyClone Cat #SV30160.03). HEK293 were allowed to adhere overnight at 37° C., 5% CO2. 500× compounds solutions in DMSO (Sigma Cat #D2650) were prepared into Cmpnds plate (Diamond Well Plate, Axigen, Cat #P-384-120SQ-C-S) and DMSO only control was included. 1 μl of 500× compounds (Cmpnds plate) was added to 49 μl of culture medium into Dilution plate (Diamond Well Plate, Axigen, Cat #P-384-120SQ-C-S), mixed and then 5 μl of 10× compounds solutions were transferred to cells followed by centrifugation at 100 g for 1 min. Final DMSO concentration was 0.2%. After 3 days of incubation, 10 μl of 1× compounds were added to cells. After 7 days of incubation, 12 μl of CellTiter-Glo (Promega, CAT #G7572) were added to the cells, plate was centrifuged at 100 g for 1 min and luminescence signal was measured using Microplate Reader (CLARIOStar).

MV4-11 = MV4-11 cellular growth inhibition assay (CellTiter-Glo); settings: Homo sapiens, 168 h, MV4-11 cells, 7 days of incubation
Procedure: as §1

[1] = HEK293 cellular growth inhibition assay (CellTiter-Glo); settings: human, HEK293 cells, 7 days of incubation
Procedure: as §1

For `CN(C)C/C=C/C(=O)N1CCN(CCn2c(C#N)cc3cc(CN4CCC5(CC4)CN(c4ncnc6ccc(CC(F)(F)F)cc46)C5)ccc32)CC1` [Compound 99], the CC50 (MOLM-13) was 1000 to 5000 nM, the CC50 (MV4-11) was 1000 to 5000 nM and the CC50 at 7 days [1] was ≤ 2000 nM.

`Cc1c(CN2CCC3(CC2)CN(c2ncnc4ccc(CC(F)(F)F)cc24)C3)ccc2c1cc(C#N)n2C[C@H]1CNC(=O)CO1` [Compound 101, 4-Methyl-1-{[(2R)-5-oxomorpholin-2-yl]methyl}-5-({2-[6-(2,2,2-trifluoroethyl)quinazolin-4-yl]-2,7-diazaspiro[3.5]non-7-yl}methyl)-1H-indole-2-carbonitrile] showed a CC50 (MOLM-13) of 1000 to 5000 nM, a CC50 (MV4-11) of 100 to 500 nM and a CC50 at 7 days [1] of 2000 to 5000 nM.

With `CNC(=O)NC12CC(Cn3c(C#N)cc4c(C)c(CN5CCC6(CC5)CN(c5ncnc7ccc(CC(F)(F)F)cc57)C6)ccc43)(C1)C2` [Compound 60, 1-[3-[[2-Cyano-4-methyl-5-[[2-[6-(2,2,2-trifluoroethyl)quinazolin-4-yl]-2,7-diazaspiro[3.5]nonan-7-yl]methyl]indol-1-yl]methyl]-1-bicyclo[1.1.1]pentanyl]-3-methyl-urea] the CC50 (MOLM-13) was ≤ 100 nM, the CC50 (MV4-11) was ≤ 100 nM and the CC50 at 7 days [1] was 2000 to 5000 nM.

For `Cc1c(CN2CCC3(CC2)CN(c2ncnc4ccc(CC(F)(F)F)cc24)C3)ccc2c1cc(C#N)n2CC12CC(NC=O)(C1)C2` [Compound 95, (3-{[2-Cyano-4-methyl-5-({2-[6-(2,2,2-trifluoroethyl)quinazolin-4-yl]-2,7-diazaspiro[3.5]non-7-yl}methyl)-1H-indol-1-yl]methyl}bicyclo[1.1.1]pent-1-yl)formamide], the CC50 (MOLM-13) was 100 to 500 nM, the CC50 (MV4-11) was ≤ 100 nM and the CC50 at 7 days [1] was 2000 to 5000 nM.

For `Cc1c(CN2CCC3(CC2)CN(c2ncnc4ncc(CC(F)(F)F)cc24)C3)ccc2c1cc(C#N)n2CC(C)N1CCN(S(C)(=O)=O)CC1` (centres unmarked) [Compound 89, 4-Methyl-1-{2-[4-(methylsulfonyl)piperazin-1-yl]propyl}-5-({2-[6-(2,2,2-trifluoroethyl)pyrido[2,3-d]pyrimidin-4-yl]-2,7-diazaspiro[3.5]non-7-yl}methyl)-1H-indole-2-carbonitrile], the CC50 (MOLM-13) was 500 to 1000 nM, the CC50 (MV4-11) was ≤ 100 nM and the CC50 at 7 days [1] was ≤ 2000 nM.

`CCS(=O)(=O)N1CCN([C@H](C)Cn2c(C#N)cc3c(C)c(CN4CCC5(CC4)CN(c4ncnc6ccc(CC(F)(F)F)cc46)C5)ccc32)C[C@@H]1C` [Compound 25, 1-[(2R)-2-[(3S)-4-ethylsulfonyl-3-methyl-piperazin-1-yl]propyl]-4-methyl-5-[[2-[6-(2,2,2-trifluoroethyl)quinazolin-4-yl]-2,7-diazaspiro[3.5]nonan-7-yl]methyl]indole-2-carbonitrile] gave a CC50 (MOLM-13) of 500 to 1000 nM, a CC50 (MV4-11) of 100 to 500 nM and a CC50 at 7 days [1] of 2000 to 5000 nM.

`C=CC(=O)N1CCN(CCCn2c(C#N)cc3c(C)c(CN4CCC5(CC4)CN(c4ncnc6ccc(CC(F)(F)F)cc46)C5)ccc32)CC1` [Compound 66, 4-methyl-1-[3-(4-prop-2-enoylpiperazin-1-yl)propyl]-5-[[2-[6-(2,2,2-trifluoroethyl)quinazolin-4-yl]-2,7-diazaspiro[3.5]nonan-7-yl]methyl]indole-2-carbonitrile] showed a CC50 (MOLM-13) of 100 to 500 nM, a CC50 (MV4-11) of 100 to 500 nM and a CC50 at 7 days [1] of 2000 to 5000 nM.

In the case of `CCCCS(=O)(=O)N1CCCN(C(C)Cn2c(C#N)cc3c(C)c(CN4CCC5(CC4)CN(c4ncnc6ccc(CC(F)(F)F)cc46)C5)ccc32)CC1` (centres unmarked) [Compound 73, 1-{2-[4-(Butylsulfonyl)-1,4-diazepan-1-yl]propyl}-4-methyl-5-({2-[6-(2,2,2-trifluoroethyl)quinazolin-4-yl]-2,7-diazaspiro[3.5]non-7-yl}methyl)-1H-indole-2-carbonitrile], the CC50 (MOLM-13) is reported as 500 to 1000 nM, the CC50 (MV4-11) is reported as ≤ 100 nM and the CC50 at 7 days [1] is reported as > 20000 nM.

With `Cc1c(CN2CCC3(CC2)CN(c2ncnc4ccc(CC(F)(F)F)cc24)C3)ccc2c1cc(C#N)n2CCCCN1CCN(S(C)(=O)=O)CC1` [Compound 44, 4-Methyl-1-{4-[4-(methylsulfonyl)piperazin-1-yl]butyl}-5-({2-[6-(2,2,2-trifluoroethyl)quinazolin-4-yl]-2,7-diazaspiro[3.5]non-7-yl}methyl)-1H-indole-2-carbonitrile] the CC50 (MOLM-13) was > 5000 nM, the CC50 (MV4-11) was 1000 to 5000 nM and the CC50 at 7 days [1] was 2000 to 5000 nM.

In the case of `Cc1c(CN2CCC3(CC2)CN(c2ncnc4ccc(CC(F)(F)F)cc24)C3)ccc2c1cc(C#N)n2CC(C)N1CCNC(=O)C1` (centres unmarked) [Compound 93, 4-Methyl-1-[2-(3-oxopiperazin-1-yl)propyl]-5-({2-[6-(2,2,2-trifluoroethyl)quinazolin-4-yl]-2,7-diazaspiro[3.5]non-7-yl}methyl)-1H-indole-2-carbonitrile], the CC50 (MOLM-13) is reported as 500 to 1000 nM, the CC50 (MV4-11) is reported as ≤ 100 nM and the CC50 at 7 days [1] is reported as 2000 to 5000 nM.

In the case of `Cc1c(CN2CCC3(CC2)CN(c2nncc4ccc(CC(F)(F)F)cc24)C3)ccc2c1cc(C#N)n2CC(C)N1CCN(S(C)(=O)=O)CC1` (centres unmarked) [Compound 79, 4-Methyl-1-[2-(4-methylsulfonylpiperazin-1-yl)propyl]-5-[[2-[7-(2,2,2-trifluoroethyl)phthalazin-1-yl]-2,7-diazaspiro[3.5]nonan-7-yl]methyl]indole-2-carbonitrile], the CC50 (MOLM-13) is reported as 1000 to 5000 nM, the CC50 (MV4-11) is reported as 500 to 1000 nM and the CC50 at 7 days [1] is reported as 5000 to 10000 nM.

With `Cc1c(CN2CCC3(CC2)CN(c2ncnc4ccc(CC(F)(F)F)cc24)C3)ccc2c1cc(C#N)n2CC1CCNC(=O)CC1` (centres unmarked) [Compound 5, 4-Methyl-1-[(7-oxoazepan-4-yl)methyl]-5-[[2-[6-(2,2,2-trifluoroethyl)quinazolin-4-yl]-2,7-diazaspiro[3.5]nonan-7-yl]methyl]indole-2-carbonitrile] the CC50 (MOLM-13) was 500 to 1000 nM, the CC50 (MV4-11) was 100 to 500 nM and the CC50 at 7 days [1] was ≤ 2000 nM.

With `Cc1c(CN2CCC3(CC2)CN(c2ncnc4ccc(CC(F)(F)F)cc24)C3)ccc2c1cc(C#N)n2CC1CNC(=O)NC1` [Compound 4, 4-Methyl-1-[(2-oxohexahydropyrimidin-5-yl)methyl]-5-[[2-[6-(2,2,2-trifluoroethyl)quinazolin-4-yl]-2,7-diazaspiro[3.5]nonan-7-yl]methyl]indole-2-carbonitrile] the CC50 (MOLM-13) was 500 to 1000 nM and the CC50 (MV4-11) was 100 to 500 nM.

For `Cc1c(CN2CCC3(CC2)CN(c2ncnc4cnc(CC(F)(F)F)cc24)C3)ccc2c1cc(C#N)n2CC(C)N1CCN(S(C)(=O)=O)CC1` (centres unmarked) [Compound 45, 4-Methyl-1-{2-[4-(methylsulfonyl)piperazin-1-yl]propyl}-5-({2-[6-(2,2,2-trifluoroethyl)pyrido[3,4-d]pyrimidin-4-yl]-2,7-diazaspiro[3.5]non-7-yl}methyl)-1H-indole-2-carbonitrile], the CC50 (MOLM-13) was 1000 to 5000 nM, the CC50 (MV4-11) was 100 to 500 nM and the CC50 at 7 days [1] was 5000 to 10000 nM.

For `Cc1c(CN2CCC3(CC2)CN(c2ncnc4ncc(CC(F)(F)F)nc24)C3)ccc2c1cc(C#N)n2CC(C)N1CCN(S(C)(=O)=O)CC1` (centres unmarked) [Compound 42, 4-Methyl-1-[2-(4-methylsulfonylpiperazin-1-yl)propyl]-5-[[2-[6-(2,2,2-trifluoroethyl)pteridin-4-yl]-2,7-diazaspiro[3.5]nonan-7-yl]methyl]indole-2-carbonitrile], the CC50 (MOLM-13) was 100 to 500 nM, the CC50 (MV4-11) was 100 to 500 nM and the CC50 at 7 days [1] was ≤ 2000 nM.

In the case of `Cc1c(CN2CCC3(CC2)CN(c2ncnc4ccc(CC(F)(F)F)cc24)C3)ccc2c1cc(C#N)n2C(C)CCN1CCN(S(C)(=O)=O)CC1` (centres unmarked) [Compound 13, 4-Methyl-1-{1-methyl-3-[4-(methylsulfonyl)piperazin-1-yl]propyl}-5-({2-[6-(2,2,2-trifluoroethyl)quinazolin-4-yl]-2,7-diazaspiro[3.5]non-7-yl}methyl)-1H-indole-2-carbonitrile], the CC50 (MOLM-13) is reported as 500 to 1000 nM, the CC50 (MV4-11) is reported as ≤ 100 nM and the CC50 at 7 days [1] is reported as 5000 to 10000 nM.

With `Cc1c(CN2CCC3(CC2)CN(c2ncnc4ccc(CC(F)(F)F)cc24)C3)ccc2c1cc(C#N)n2CC1CNC(=O)CO1` (centres unmarked) [Compound 82, 4-Methyl-1-[(5-oxomorpholin-2-yl)methyl]-5-({2-[6-(2,2,2-trifluoroethyl)quinazolin-4-yl]-2,7-diazaspiro[3.5]non-7-yl}methyl)-1H-indole-2-carbonitrile] the CC50 (MOLM-13) was 100 to 500 nM, the CC50 (MV4-11) was ≤ 100 nM and the CC50 at 7 days [1] was 2000 to 5000 nM.

Compound `Cc1c(CN2CCC3(CC2)CN(c2ncnc4ccc(CC(F)(F)F)nc24)C3)ccc2c1cc(C#N)n2CC(C)N1CCN(S(C)(=O)=O)CC1` (centres unmarked) [Compound 67, 4-Methyl-1-{2-[4-(methylsulfonyl)piperazin-1-yl]propyl}-5-({2-[6-(2,2,2-trifluoroethyl)pyrido[3,2-d]pyrimidin-4-yl]-2,7-diazaspiro[3.5]non-7-yl}methyl)-1H-indole-2-carbonitrile] has a CC50 (MOLM-13) of 100 to 500 nM, a CC50 (MV4-11) of 100 to 500 nM and a CC50 at 7 days [1] of 5000 to 10000 nM.

`N#Cc1cc2cc(CN3CCC4(CC3)CN(c3ncnc5ccc(CC(F)(F)F)cc35)C4)ccc2[nH]1` [Compound 98] showed a CC50 (MOLM-13) of 1000 to 5000 nM, a CC50 (MV4-11) of 500 to 1000 nM and a CC50 at 7 days [1] of 5000 to 10000 nM.

With `Cc1c(CN2CCC3(CC2)CN(c2ncnc4ccc(CC(F)(F)F)cc24)C3)ccc2c1cc(C#N)n2CC1CCC(=O)NC1` (centres unmarked) [Compound 72, 4-Methyl-1-[(6-oxopiperidin-3-yl)methyl]-5-({2-[6-(2,2,2-trifluoroethyl)quinazolin-4-yl]-2,7-diazaspiro[3.5]non-7-yl}methyl)-1H-indole-2-carbonitrile] the CC50 (MOLM-13) was 500 to 1000 nM, the CC50 (MV4-11) was 100 to 500 nM and the CC50 at 7 days [1] was ≤ 2000 nM.
